Data reported in US9326973B2, “Hepatitis C virus inhibitors” (priority 2012, dated 2016).

tested on: HCV replicon, genotype-1a variant with glutamine 30 changed to glutamate in the NS5A protein; test: microbe, parasite or virus in culture; assay type: cell-based, HCV genotype 1a; details: HCV replicon genotype 1a Q30E (Q→E) variant; test compound titrated with an NS5A-targeting compound (BMS-790052 fixed at 200 nM); ranking of synergist activity
Outline: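 Synergy was assessed by combining several fixed amounts of an NS5A-targeting compound with a titration of the second compound of interest.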

Structure (SMILES)	Fold-Synergistic 1a (Q30E) [fold]
COC1CCN(C(=O)C(C)(C)C(=O)N[C@H](c2nc(-c3ccc(-c4ccc(-c5c[nH]c([C@@H](NC(=O)C(C)(C)C(=O)N6CCC(OC)CC6)C(C)(C)C)n5)cc4)cc3)c[nH]2)C(C)(C)C)CC1 [Compound W-143]	>100
CC(C)[C@H](NC(=O)C(C)(C)F)c1nc(-c2ccc(-c3ccc(-c4c[nH]c([C@@H](NC(=O)C(C)(C)F)C(C)C)n4)cc3F)cc2)c[nH]1 [Compound N-97]	>100
COC(C)(C)C(=O)N[C@H](c1nc(-c2ccc(-c3ccc(-c4c[nH]c([C@@H](NC(=O)C(C)(C)OC)C(C)(C)C)n4)c(F)c3)cc2)c[nH]1)C(C)(C)C [Compound N-94]	>100
Cc1cn(CCC(=O)N2CCC[C@H]2c2ncc(-c3ccc(-c4ccc(-c5cnc([C@@H]6CCCN6C(=O)CCn6cc(C)c7ccccc76)[nH]5)cc4)cc3)[nH]2)c2ccccc12 [Compound S-153]	>10
CC(C)(C)OC(=O)N1CCC[C@H]1C(=O)N[C@H](c1nc(-c2ccc(-c3ccc(-c4c[nH]c([C@@H](NC(=O)[C@@H]5CCCN5C(=O)OC(C)(C)C)C(C)(C)C)n4)cc3)cc2)c[nH]1)C(C)(C)C [Compound W-86]	>100
CC(C)(C)[C@H](NC(=O)[C@@H]1CCCN1CC(F)(F)F)c1nc(-c2ccc(-c3ccc(-c4c[nH]c([C@@H](NC(=O)[C@@H]5CCCN5CC(F)(F)F)C(C)(C)C)n4)cc3)cc2)c[nH]1 [Compound L-52]	>100
CC(C)(C)[C@H](NC(=O)C(C)(C)C1(O)CCCCC1)c1nc(-c2ccc(-c3ccc(-c4c[nH]c([C@@H](NC(=O)C(C)(C)C5(O)CCCCC5)C(C)(C)C)n4)cc3)cc2)c[nH]1 [Compound P-160]	>100
CC(C)(C)[C@H](NC(=O)[C@H]1COC(=O)N1)c1nc(-c2ccc(-c3ccc(-c4c[nH]c([C@@H](NC(=O)[C@H]5COC(=O)N5)C(C)(C)C)n4)cc3)cc2)c[nH]1 [Compound L-9]	>10
O=C(c1ccc2ncsc2c1)N1CCC[C@H]1c1ncc(-c2ccc(-c3ccc(-c4cnc([C@@H]5CCCN5C(=O)c5ccc6ncsc6c5)[nH]4)cc3)cc2)[nH]1 [Compound S-136]	<10
CC(C)[C@H](O)C(=O)N[C@H](c1nc(-c2ccc(-c3ccc(-c4c[nH]c([C@@H](NC(=O)[C@@H](O)C(C)C)C(C)(C)C)n4)cc3)cc2)c[nH]1)C(C)(C)C [Compound L-78]	>100
CC(C)(C)C(=O)N[C@H](c1ncc(-c2ccc(-c3ccc(-c4cnc([C@@H](NC(=O)C(C)(C)C)C(C)(C)CF)[nH]4)cc3)cc2)[nH]1)C(C)(C)CF [Compound Y-68]	>100
CC(C)(C)[C@H](NC(=O)[C@H]1C[C@](C)(O)C1)c1nc(-c2ccc(-c3ccc(-c4c[nH]c([C@@H](NC(=O)[C@H]5C[C@](C)(O)C5)C(C)(C)C)n4)cc3)cc2)c[nH]1 [Compound W-170]	>100
CC(C)(C(=O)N[C@H](c1nc(-c2ccc(-c3ccc(-c4c[nH]c([C@@H](NC(=O)C(C)(C)C(=O)N5CCC(O)CC5)C(C)(C)C)n4)cc3)cc2)c[nH]1)C(C)(C)C)C(=O)N1CCC(O)CC1 [Compound W-136]	>10
COC(=O)N1C[C@H](F)C[C@H]1C(=O)N[C@H](c1nc(-c2ccc(-c3ccc(-c4c[nH]c([C@@H](NC(=O)[C@@H]5C[C@@H](F)CN5C(=O)OC)C(C)(C)C)n4)cc3)cc2)c[nH]1)C(C)(C)C [Compound W-109]	>100
O=C(c1ccnc2ccccc12)N1CCC[C@H]1c1ncc(-c2ccc(-c3ccc(-c4cnc([C@@H]5CCCN5C(=O)c5ccnc6ccccc56)[nH]4)cc3)cc2)[nH]1 [Compound S-125]	<10
CCN(CC(F)(F)F)C(=O)C(=O)N[C@H](c1nc(-c2ccc(-c3ccc(-c4c[nH]c([C@@H](NC(=O)C(=O)N(CC)CC(F)(F)F)C(C)(C)C)n4)cc3)cc2)c[nH]1)C(C)(C)C [Compound W-37]	>100
CO[C@H](C)C(=O)N[C@H](c1nc(-c2ccc(-c3ccc(-c4c[nH]c([C@@H](NC(=O)[C@@H](C)OC)C(C)(C)C)n4)cc3)cc2)c[nH]1)C(C)(C)C [Compound L-80]	>100
O=C(c1cccc2cnccc12)N1CCC[C@H]1c1ncc(-c2ccc(-c3ccc(-c4cnc([C@@H]5CCCN5C(=O)c5cccc6cnccc56)[nH]4)cc3)cc2)[nH]1 [Compound S-203]	<10
Cc1nn(-c2ccccc2)nc1C(=O)N1CCC[C@H]1c1ncc(-c2ccc(-c3ccc(-c4cnc([C@@H]5CCCN5C(=O)c5nn(-c6ccccc6)nc5C)[nH]4)cc3)cc2)[nH]1 [Compound S-129]	>100
C[C@@H]1CN(C(=O)C(C)(C)C(=O)N[C@H](c2nc(-c3ccc(-c4ccc(-c5c[nH]c([C@@H](NC(=O)C(C)(C)C(=O)N6C[C@@H](C)O[C@@H](C)C6)C(C)(C)C)n5)cc4)cc3)c[nH]2)C(C)(C)C)C[C@H](C)O1 [Compound W-154]	>100
CC(C)[C@H](NC(=O)C1(C)CCCC1)c1nc(-c2ccc3c(c2)Cc2cc(-c4c[nH]c([C@@H](NC(=O)C5(C)CCCC5)C(C)C)n4)ccc2-3)c[nH]1 [Compound N-72]	>100
CC(C)[C@H](NC(=O)C(C)(C)N1C[C@@H](C)O[C@@H](C)C1)c1nc(-c2ccc(-c3ccc(-c4c[nH]c([C@@H](NC(=O)C(C)(C)N5C[C@@H](C)O[C@@H](C)C5)C(C)C)n4)cc3)cc2)c[nH]1 [Compound W-161]	>100
O=C(c1cc2ccccc2[nH]1)N1CCC[C@H]1c1ncc(-c2ccc(-c3ccc(-c4cnc([C@@H]5CCCN5C(=O)c5cc6ccccc6[nH]5)[nH]4)cc3)cc2)[nH]1 [Compound S-120]	<10
CC(C)(C(=O)N[C@H](c1nc(-c2ccc(-c3ccc(-c4c[nH]c([C@@H](NC(=O)C(C)(C)C(=O)N5CC(O)C5)C(C)(C)C)n4)cc3)cc2)c[nH]1)C(C)(C)C)C(=O)N1CC(O)C1 [Compound W-144]	>10
CC(C)(C)[C@H](NC(=O)C(=O)N1CCC(F)(F)C1)c1nc(-c2ccc(-c3ccc(-c4c[nH]c([C@@H](NC(=O)C(=O)N5CCC(F)(F)C5)C(C)(C)C)n4)cc3)cc2)c[nH]1 [Compound W-22]	>100
CC(C)(C)OC(=O)N1C[C@@H](O)C[C@H]1C(=O)N[C@H](c1nc(-c2ccc(-c3ccc(-c4c[nH]c([C@@H](NC(=O)[C@@H]5C[C@H](O)CN5C(=O)OC(C)(C)C)C(C)(C)C)n4)cc3)cc2)c[nH]1)C(C)(C)C [Compound W-98]	>100
C[C@@H](OC(=O)NC1(C(=O)N[C@H](c2nc(-c3ccc(-c4ccc(-c5c[nH]c([C@@H](NC(=O)C6(NC(=O)O[C@H](C)C(F)(F)F)CC6)C6(C)CC6)n5)cc4)cc3)c[nH]2)C2(C)CC2)CC1)C(F)(F)F [Compound L-42]	>100
COc1ccc(CNC(C)(C)C(=O)N[C@H](c2nc(-c3ccc(-c4ccc(-c5c[nH]c([C@@H](NC(=O)C(C)(C)NCc6ccc(OC)cc6)C(C)(C)C)n5)cc4)cc3)c[nH]2)C(C)(C)C)cc1 [Compound S-267]	>100
CN(C(=O)C(=O)N[C@H](c1nc(-c2ccc(-c3ccc(-c4c[nH]c([C@@H](NC(=O)C(=O)N(C)C5CC5)C(C)(C)C)n4)cc3)cc2)c[nH]1)C(C)(C)C)C1CC1 [Compound W-50]	>100
